According to patent US20170058282A1 (priority 2015, published 2017):

Experiments:
[1] = biological target: T1, Lactococcus lactis heme-responsive transcription factor HrtR, SEQ ID NO: 1 (in E. coli MG1655, HrtR+ChuA+PhrtAB-luxCDABE) (Lactococcus cremoris, UniProt A2RIY0); test: Hemin response of E. coli MG1655 with HrtR+ChuA+PhrtAB-luxCDABE (luminescence); assay type: cell-based
T1 sequence (A2RIY0 1-189): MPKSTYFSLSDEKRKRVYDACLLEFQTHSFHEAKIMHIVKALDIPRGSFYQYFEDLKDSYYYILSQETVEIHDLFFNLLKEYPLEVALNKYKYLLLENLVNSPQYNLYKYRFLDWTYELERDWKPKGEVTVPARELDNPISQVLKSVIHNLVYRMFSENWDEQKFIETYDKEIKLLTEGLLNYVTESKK

[2] = biological target: T2, Lactococcus lactis heme-responsive transcription factor HrtR, SEQ ID NO: 1 (in E. coli MG1655, no ChuA) (Lactococcus cremoris, UniProt A2RIY0); test: Hemin response of E. coli MG1655 with HrtR and PhrtAB- or PL(HrtO)-luxCDABE without ChuA (luminescence); assay type: cell-based
T2 construct: PhrtAB- or PL(HrtO)-luxCDABE reporter
T2 sequence (A2RIY0 1-189): T1 sequence (A2RIY0 1-189)

Structure (SMILES) | time to detectable differences in luminescence ([1]; depending on the concentration of hemin used) [min] | response of gene circuit to extracellular hemin [2] | response concentration range ([1]; with ChuA)
C=CC1=C(C)c2cc3[nH]c(cc4nc(cc5[nH]c(cc1n2)c(C)c5CCC(=O)O)C(CCC(=O)O)=C4C)c(C)c3C=C.[Fe+3] [hemin] | 30 to 60 | insensitive | 
C=CC1=C(C)c2cc3[nH]c(cc4nc(cc5[nH]c(cc1n2)c(C)c5CCC(=O)O)C(CCC(=O)O)=C4C)c(C)c3C=C.[Fe+2] [heme] |  |  | sub-micromolar range
